{
  "source": "patent US20100028879A1",
  "about": "“Modulators of HSD17b7 for treating acne or hyperseborrhea” (GALDERMA RESEARCH & DEVELOPMENT, priority 2006, published 2010)",
  "test_system": "HSD17B7 gene",
  "details": "gonadectomized mice, short-term treatment",
  "note": "Read-outs that look alike come from different tables or passages of the source.",
  "description": "The points Veh-24h-a and Veh-24h-b show the level of expression of HSD17B7 of gonadectomized mice untreated with DHT.\nThe expression of the genes was analyzed on an Affymetrix station (microfluidic model; hybridization oven; scanner; computer) following the protocols provided by the company. Briefly, the total RNA isolated from the tissues was transcribed to cDNA. From the double-stranded cDNA, a cRNA labeled with biotin was synthesized using T7 polymerase and a precursor NTP conjugated to biotin. The cRNAs were then fragmented to small sized fragments. […] The Affymetrix chip is hybridized with the biotinylated cRNA, rinsed and then fluorescence labeled using a fluorophore conjugated to streptavidin. After washings, the chip is scanned and the results are calculated using the MAS5 software provided by Affymetrix. An expression value is obtained for each gene as well as the indication of the significance of the value obtained.\nB. Male mice were gonadectomized and were then treated with the vehicle or DHT. The preputial glands were removed for a period ranging up to 4 days (androgenic treatment alone—observation of a short-term kinetics). The RNA was isolated and the expression of the genes was analyzed by the Affymetrix technique using two different probe sets: 1417871_at (FIGS. 2A and 2C) and 1448865_at (FIGS. 2B and 2D).",
  "data": [
    {"compound": "C[C@]12CCC(=O)C[C@@H]1CC[C@@H]1[C@@H]2CC[C@]2(C)[C@@H](O)CC[C@@H]12", "note": "[DHT, Dihydrotestosterone]", "values": [
      {"measurement": "mRNA for HSD17B7 in the mouse preputial gland", "setting": "kinetic study 15 minutes to 96 hours, effect visible at 24 and 96 hours, FIGS. 2A, 2B", "value": "moderately induced"},
      {"measurement": "mRNA for HSD17B7 in the mouse preputial gland", "setting": "kinetic study 1 hour to 24 hours, effect starting at 12 hours, well visible at 18 and 24 hours, FIGS. 2C, 2D", "value": "induced"}
    ]}
  ]
}
